In publication PMC10693969 (Parasites, Hosts and Diseases, 2023):
Where two headings read alike, the source gives them in different places.

What was measured:
[1] = tested on: Naegleria fowleri trophozoites (Carter NF69 strain, ATCC 30215); test: In vitro anti-N. fowleri activity, trophozoite viability; assay type: cell-based; settings: for SI, sensitivity index (CC50 C6 glial cells / IC50 N. fowleri): ratio CC50 C6 glial cells / IC50 N. fowleri; for antiamoebic activity against N. fowleri (in words): in vitro
[2] = tested on: A. castellanii (ATCC-30868) trophozoites; test: In vitro anti-Acanthamoeba activity, A. castellanii trophozoite viability; assay type: cell-based; settings: for SI, sensitivity index (CC50 C6 glial cells / IC50 A. castellanii): ratio CC50 C6 glial cells / IC50 A. castellanii; for antiamoebic activity against A. castellanii (in words): in vitro
[3] = tested on: A. polyphaga (ATCC-30461) trophozoites; test: In vitro anti-Acanthamoeba activity, A. polyphaga trophozoite viability; assay type: cell-based; settings: for SI, sensitivity index (CC50 C6 glial cells / IC50 A. polyphaga): ratio CC50 C6 glial cells / IC50 A. polyphaga; for antiamoebic activity against A. polyphaga (in words): in vitro
[4] = tested on: C6 rat glial cells (ATCC CCL-107); test: Cytotoxicity against C6 glial cells; assay type: cell-based; settings: for CC50: read-out: C6 glial cells (CC50 ±SD), C6 rat glial cells, 0–400 μM, mean±SD of 3 independent assays
[5] = Cytotoxicity against C6 glial cells; assay type: cell-based, rat; settings: rat, C6 glial cells
[6] = tested on: A. castellanii trophozoites; settings: cited from earlier work
[7] = tested on: murine macrophages J774A.1; settings: cited from earlier work
[8] = read-out: N. fowleri (IC50 ±SD), trophozoites, 0–400 μM, 37°C, 48 h, mean±SD of 3 independent experiments
[9] = read-out: A. castellanii (IC50 ±SD), trophozoites, 0–400 μM, 25°C, 48 h, mean±SD of 3 independent experiments
[10] = read-out: A. polyphaga (IC50 ±SD), trophozoites, 0–400 μM, 25°C, 48 h, mean±SD of 3 independent experiments
[11] = Naegleria fowleri, ATCC30215, 48 h, read-out: N. fowleri (IC50 ±SD, μM), trophozoites, 0–400 μM, 37°C, 48 h, mean±SD of 3 independent experiments
[12] = Acanthamoeba castellanii, ATCC30868, 48 h, read-out: A. castellanii (IC50 ±SD, μM), trophozoites, 0–400 μM, 25°C, 48 h, mean±SD of 3 independent experiments
[13] = Acanthamoeba polyphaga, ATCC30461, 48 h, read-out: A. polyphaga (IC50 ±SD, μM), trophozoites, 0–400 μM, 25°C, 48 h, mean±SD of 3 independent experiments

Row | Compound | SI, sensitivity index (CC50 C6 glial cells / IC50 N. fowleri) [1] | IC50 [1, 8] | SI, sensitivity index (CC50 C6 glial cells / IC50 A. castellanii) [2] | IC50 [2, 9] | SI, sensitivity index (CC50 C6 glial cells / IC50 A. polyphaga) [3] | IC50 [3, 10] | CC50 [4] | antiamoebic activity against N. fowleri (in words) ([1]; trophozoites) | CC50 [5] | IC50 [1, 11] | IC50 [2, 12] | IC50 [3, 13] | also measured
1 | silybin (A+B) mixture | 4.13 | 24.2 ± 0.27 µM | 4.08 | 24.5 ± 0.56 µM | 6.31 | 15.82 ± 0.06 µM | 99.89 ± 0.78 µM | – | – | – | – | – | IC50 ([2]; read-out: A. castellanii (IC50 ±SD), trophozoites, 0–400 μM, 25°C, 48 h, mean±SD of 3 independent experiments, listed as silybin (A+B)): < 50 µM; IC50 ([3]; read-out: A. polyphaga (IC50 ±SD), trophozoites, 0–400 μM, 25°C, 48 h, mean±SD of 3 independent experiments, listed as silybin (A+B)): < 50 µM
2 | Oc1cc(O)c2c(c1)O[C@H](c1cc(O)c(O)c(O)c1)[C@H](O)C2 [(−)-Epigallocatechin, (−)-epigallocatechin] | 2.44 | 114.6 ± 0.48 µM | 8.68 | 32.1 ± 1.03 µM | 11.55 | 24.16 ± 0.16 µM | 279 ± 0.3 µM | did not show significative anti-N. fowleri activities | – | – | – | – | SI, sensitivity index (CC50 C6 glial cells / IC50 A. castellanii) ([2]; listed as (−)-epigallocatechin): > 8; IC50 ([2]; read-out: A. castellanii (IC50 ±SD), trophozoites, 0–400 μM, 25°C, 48 h, mean±SD of 3 independent experiments, listed as (−)-epigallocatechin): < 50 µM; SI, sensitivity index (CC50 C6 glial cells / IC50 A. polyphaga) ([3]; listed as (−)-epigallocatechin): > 8; IC50 ([3]; read-out: A. polyphaga (IC50 ±SD), trophozoites, 0–400 μM, 25°C, 48 h, mean±SD of 3 independent experiments, listed as (−)-epigallocatechin): < 50 µM
3 | COc1ccc2c(c[n+](C)c3c4cc5c(cc4ccc23)OCO5)c1OC [Chelerythrine, chelerythrine chloride] | 1.39 | – | – | – | – | – | – | strong antiamoebic activity | 16.4 ± 0.45 µM | – | – | – | IC50 ([1]; Naegleria fowleri, ATCC30215, 48 h, read-out: N. fowleri (IC50 ±SD, μM)): 11.8 ± 1.15 µM; IC50 ([2]; Acanthamoeba castellanii, ATCC30868, 48 h, read-out: A. castellanii (IC50 ±SD, μM)): 148.1 ± 1.38 µM; antiamoebic activity against A. castellanii (in words) ([2]; trophozoites): did not exhibit potential or selective antiamoebic activity; IC50 ([3]; Acanthamoeba polyphaga, ATCC30461, 48 h, read-out: A. polyphaga (IC50 ±SD, μM)): 102 ± 1.4 µM; antiamoebic activity against A. polyphaga (in words) ([3]; trophozoites): did not exhibit potential or selective antiamoebic activity; cytotoxicity to C6 glial cells (in words) [4]: potent cytotoxicity; cytotoxicity to C6 glial cells (in words) ([4]; listed as chelerythrine): strong toxicity
4 | COc1cc(/C=C/C(O)=C/C(=O)/C=C/c2ccc(O)cc2)ccc1O [Demethoxycurcumin, demethoxycurcumin] | > 7 | 27.1 ± 0.35 µM | >8.19 | 36.1 ± 0.82 µM | >13.48 | 21.93 ± 0.18 µM | – | – | > 296 µM | < 30 µM | < 50 µM | – | SI, sensitivity index (CC50 C6 glial cells / IC50 N. fowleri) ([1]; listed as demethoxycurcumin): > 8; IC50 ([1]; read-out: N. fowleri (IC50 ±SD), trophozoites, 0–400 μM, 37°C, 48 h, mean±SD of 3 independent experiments, listed as demethoxycurcumin): < 40 µM; SI, sensitivity index (CC50 C6 glial cells / IC50 A. castellanii) ([2]; listed as demethoxycurcumin): > 8; IC50 ([2]; read-out: A. castellanii (IC50 ±SD), trophozoites, 0–400 μM, 25°C, 48 h, mean±SD of 3 independent experiments, listed as demethoxycurcumin): < 40 µM; SI, sensitivity index (CC50 C6 glial cells / IC50 A. polyphaga) ([3]; listed as demethoxycurcumin): > 8; IC50 ([3]; read-out: A. polyphaga (IC50 ±SD), trophozoites, 0–400 μM, 25°C, 48 h, mean±SD of 3 independent experiments, listed as demethoxycurcumin): < 40 µM; toxicity to A. castellanii trophozoites (in words) [6]: toxic
5 | O=c1cc(-c2ccc(O)cc2)oc2cc(O)cc(O)c12 [Apigenin, apigenin] | 2.57 | – | 5.60 | 43.4 ± 0.8 µM | 8.58 | 28.33 ± 0.13 µM | – | did not show significative anti-N. fowleri activities | 243.1 ± 0.98 µM | 94.65 ± 0.58 µM | < 50 µM | < 50 µM | cytotoxicity to C6 glial cells (in words) [4]: did not show significative cytotoxicity; cytotoxicity against murine macrophages J774A.1 (in words) [7]: potential cytotoxicity
6 | (±)-catechin hydrate | – | > 345 µM | – | > 345 µM | – | > 345 µM | > 345 µM | – | – | – | – | – | antiamoebic activity against A. castellanii (in words) ([2]; trophozoites): did not exhibit potential or selective antiamoebic activity; antiamoebic activity against A. polyphaga (in words) ([3]; trophozoites): did not exhibit potential or selective antiamoebic activity
7 | Oc1cc(O)c2c(c1)O[C@H](c1ccc(O)c(O)c1)[C@H](O)C2 [(−)-Epicatechin, (−)-epicatechin] | 3.11 | – | 9.55 | 33.4 ± 0.68 µM | 12.73 | 25.02 ± 0.14 µM | – | did not show significative anti-N. fowleri activities | 318.6 ± 0.82 µM | 102.6 ± 0.97 µM | < 50 µM | < 50 µM | SI, sensitivity index (CC50 C6 glial cells / IC50 A. castellanii) ([2]; listed as (−)-epicatechin): > 8; SI, sensitivity index (CC50 C6 glial cells / IC50 A. polyphaga) ([3]; listed as (−)-epicatechin): > 8
8 | C=C1C(=O)O[C@@H]2/C=C(\C)CC/C=C(\C)CC[C@@H]12 [Costunolide, costunolide] | 2.92 | – | 5.97 | 32 ± 1.14 µM | 5.44 | 35.1 ± 0.74 µM | – | – | 191.2 ± 1.18 µM | 65.56 ± 0.58 µM | < 50 µM | < 50 µM | –
9 | (+)-pinostrobin | – | > 370 µM | – | > 370 µM | – | > 370 µM | > 370 µM | – | – | – | – | – | antiamoebic activity against A. castellanii (in words) ([2]; trophozoites): did not exhibit potential or selective antiamoebic activity; antiamoebic activity against A. polyphaga (in words) ([3]; trophozoites): did not exhibit potential or selective antiamoebic activity
10 | Oc1ccc(/C=C/c2cc(O)cc(O)c2)cc1 [Resveratrol, resveratrol] | 4.68 | – | 5.52 | 40.03 ± 0.39 µM | 7.04 | 31.35 ± 0.08 µM | – | – | 220.78 ± 0.09 µM | 47.19 ± 0.36 µM | < 50 µM | < 50 µM | toxicity to A. castellanii trophozoites (in words) [6]: toxic
11 | CC[C@H]1OC(=O)[C@H](C)[C@@H](O[C@H]2C[C@@](C)(OC)[C@@H](O)[C@H](C)O2)[C@H](C)[C@@H](O[C@@H]2O[C@H](C)C[C@H](N(C)C)[C@H]2O)[C@](C)(O)C[C@@H](C)CN(C)[C@H](C)[C@@H](O)[C@]1(C)O [Azithromycin, Azithromycin dihydrate, reference compound] | 5.88 | – | 7.12 | – | 20.93 | – | – | – | 86.2 ± 0.93 µM | 14.7 ± 1.65 µM | 12.1 ± 0.2 µM | 4.12 ± 0.11 µM | –
12 | O=C(/C=C/c1ccc(O)c(O)c1)O[C@H](Cc1ccc(O)c(O)c1)C(=O)O [Rosmarinic acid, rosmarinic acid] | >3.57 | – | >8.77 | 31.66 ± 0.31 µM | >12.38 | 22.4 ± 0.78 µM | – | did not show significative anti-N. fowleri activities | > 278 µM | 77.7 ± 0.97 µM | < 50 µM | – | SI, sensitivity index (CC50 C6 glial cells / IC50 A. castellanii) ([2]; listed as rosmarinic acid): > 8; SI, sensitivity index (CC50 C6 glial cells / IC50 A. polyphaga) ([3]; listed as rosmarinic acid): > 8; IC50 ([3]; read-out: A. polyphaga (IC50 ±SD), trophozoites, 0–400 μM, 25°C, 48 h, mean±SD of 3 independent experiments, listed as rosmarinic acid): < 50 µM
